Source: patent US6706740B2, “Fungicidal heterocyclic aromatic amides and their compositions, methods of use and preparation” (Dow AgroSciences LLC, priority 1999, dated 2004)

System: Erysiphe graminis—ERYSGT
Assay: Powdery Mildew of Wheat, in vivo whole plant, 24 Hour Protectant
Conditions: Erysiphe; 100 ppm spray, wheat, 24 hour protectant; control of fungal infection vs untreated plants; read-out: ERYSGT in vivo 1 Day Protectant

Structure (SMILES)	pest or weed control at 100 ppm [%]
COc1ccnc(C(=O)Nc2ccc(C(=O)c3cccc(C(F)(F)F)c3)cc2)c1O [Compound 405]	< 25
COc1ccnc(C(=O)NC(COC(=O)CC(C)OC(=O)CCc2ccccc2)C(=O)OC(C)C)c1O (centres unmarked) [Compound 353]	< 25
COC(=O)C(COC(=O)CC(C)OC(=O)C(C)C)NC(=O)c1nccc(OC)c1O (centres unmarked) [Compound 347]	< 25
COc1ccnc(C(=O)Nc2ccc(Oc3ccc(C#N)cc3)cc2)c1O [Compound 422]	< 25

System: Mycosphaerella graminicola (Septoria tritici—SEPTTR)
Assay: In vitro fungal growth inhibition, Mycosphaerella graminicola (SEPTTR)
Format: cell-based
Conditions: Zymoseptoria tritici; 25 ppm in growth medium; read-out: SEPTTR in vitro Growth Inhibition

Structure (SMILES)	inhibition at 25 ppm [%]
COc1ccnc(C(=O)Nc2ccc(C(=O)c3cccc(C(F)(F)F)c3)cc2)c1O [Compound 405]	< 80
COc1ccnc(C(=O)NC(COC(=O)CC(C)OC(=O)CCc2ccccc2)C(=O)OC(C)C)c1O (centres unmarked) [Compound 353]	< 80
COC(=O)C(COC(=O)CC(C)OC(=O)C(C)C)NC(=O)c1nccc(OC)c1O (centres unmarked) [Compound 347]	< 80
COc1ccnc(C(=O)Nc2ccc(Oc3ccc(C#N)cc3)cc2)c1O [Compound 422]	< 80

System: Rhizoctonia solani (RHIZSO)
Assay: microbe, parasite or virus in culture
Format: cell-based
Conditions: Rhizoctonia solani, read-out: RHIZSO in vitro Growth Inhibition

Structure (SMILES)	inhibition at 25 ppm [%]
COc1ccnc(C(=O)Nc2ccc(C(=O)c3cccc(C(F)(F)F)c3)cc2)c1O [Compound 405]	< 80
COc1ccnc(C(=O)NC(COC(=O)CC(C)OC(=O)CCc2ccccc2)C(=O)OC(C)C)c1O (centres unmarked) [Compound 353]	< 80
COC(=O)C(COC(=O)CC(C)OC(=O)C(C)C)NC(=O)c1nccc(OC)c1O (centres unmarked) [Compound 347]	< 80
COc1ccnc(C(=O)Nc2ccc(Oc3ccc(C#N)cc3)cc2)c1O [Compound 422]	< 80

System: Phytophthora infestans—PHYTIN
Assay: whole plant or invertebrate
Format: in vivo
Conditions: Phytophthora, in Solanum lycopersicum, 24 h, read-out: PHYTIN in vivo 1 Day Protectant

Structure (SMILES)	pest or weed control at 100 ppm [%]
COc1ccnc(C(=O)Nc2ccc(C(=O)c3cccc(C(F)(F)F)c3)cc2)c1O [Compound 405]	< 25
COc1ccnc(C(=O)NC(COC(=O)CC(C)OC(=O)CCc2ccccc2)C(=O)OC(C)C)c1O (centres unmarked) [Compound 353]	< 25
COC(=O)C(COC(=O)CC(C)OC(=O)C(C)C)NC(=O)c1nccc(OC)c1O (centres unmarked) [Compound 347]	< 25
COc1ccnc(C(=O)Nc2ccc(Oc3ccc(C#N)cc3)cc2)c1O [Compound 422]	25 to 74

System: Ustilago maydis (USTIMA)
Assay: microbe, parasite or virus in culture
Format: cell-based
Conditions: Mycosarcoma maydis, read-out: USTIMA in vitro Growth Inhibition

Structure (SMILES)	inhibition at 25 ppm [%]
COc1ccnc(C(=O)Nc2ccc(C(=O)c3cccc(C(F)(F)F)c3)cc2)c1O [Compound 405]	< 80
COc1ccnc(C(=O)NC(COC(=O)CC(C)OC(=O)CCc2ccccc2)C(=O)OC(C)C)c1O (centres unmarked) [Compound 353]	< 80
COC(=O)C(COC(=O)CC(C)OC(=O)C(C)C)NC(=O)c1nccc(OC)c1O (centres unmarked) [Compound 347]	< 80
COc1ccnc(C(=O)Nc2ccc(Oc3ccc(C#N)cc3)cc2)c1O [Compound 422]	< 80

System: Leptosphaeria nodorum—LEPTNO
Assay: Glume Blotch of Wheat, in vivo whole plant, 24 Hour Protectant
Conditions: Leptosphaeria; 100 ppm spray, wheat, 24 hour protectant; control of fungal infection vs untreated plants; read-out: LEPTNO in vivo 1 Day Protectant

Structure (SMILES)	pest or weed control at 100 ppm [%]
COc1ccnc(C(=O)Nc2ccc(C(=O)c3cccc(C(F)(F)F)c3)cc2)c1O [Compound 405]	25 to 74
COc1ccnc(C(=O)NC(COC(=O)CC(C)OC(=O)CCc2ccccc2)C(=O)OC(C)C)c1O (centres unmarked) [Compound 353]	< 25
COC(=O)C(COC(=O)CC(C)OC(=O)C(C)C)NC(=O)c1nccc(OC)c1O (centres unmarked) [Compound 347]	25 to 74
COc1ccnc(C(=O)Nc2ccc(Oc3ccc(C#N)cc3)cc2)c1O [Compound 422]	< 25

System: Stagonospora nodorum (Leptosphaeria nodorum—LEPTNO)
Assay: In vitro fungal growth inhibition, Stagonospora nodorum (LEPTNO)
Format: cell-based
Conditions: Leptosphaeria; 25 ppm in growth medium; read-out: LEPTNO in vitro Growth Inhibition

Structure (SMILES)	inhibition at 25 ppm [%]
COc1ccnc(C(=O)Nc2ccc(C(=O)c3cccc(C(F)(F)F)c3)cc2)c1O [Compound 405]	> 80
COc1ccnc(C(=O)NC(COC(=O)CC(C)OC(=O)CCc2ccccc2)C(=O)OC(C)C)c1O (centres unmarked) [Compound 353]	< 80
COC(=O)C(COC(=O)CC(C)OC(=O)C(C)C)NC(=O)c1nccc(OC)c1O (centres unmarked) [Compound 347]	< 80
COc1ccnc(C(=O)Nc2ccc(Oc3ccc(C#N)cc3)cc2)c1O [Compound 422]	< 80

System: Septoria tritici—SEPTTR
Assay: Leaf Blotch of Wheat, in vivo whole plant, 24 Hour Protectant
Conditions: Zymoseptoria tritici, 24 h, 100 ppm spray, wheat, 24 hour protectant; control of fungal infection vs untreated plants; read-out: SEPTTR in vivo 1 Day Protectant

Structure (SMILES)	pest or weed control at 100 ppm [%]
COc1ccnc(C(=O)Nc2ccc(C(=O)c3cccc(C(F)(F)F)c3)cc2)c1O [Compound 405]	< 25
COc1ccnc(C(=O)NC(COC(=O)CC(C)OC(=O)CCc2ccccc2)C(=O)OC(C)C)c1O (centres unmarked) [Compound 353]	< 25
COC(=O)C(COC(=O)CC(C)OC(=O)C(C)C)NC(=O)c1nccc(OC)c1O (centres unmarked) [Compound 347]	< 25
COc1ccnc(C(=O)Nc2ccc(Oc3ccc(C#N)cc3)cc2)c1O [Compound 422]	< 25

System: Puccinia recondita—PUCCRT
Assay: Brown Rust of Wheat, in vivo whole plant, 24 Hour Protectant
Conditions: 100 ppm spray, wheat, 24 hour protectant; control of fungal infection vs untreated plants

Structure (SMILES)	PUCCRT in vivo 1 Day Protectant
COc1ccnc(C(=O)NC(COC(=O)CC(C)OC(=O)CCc2ccccc2)C(=O)OC(C)C)c1O (centres unmarked) [Compound 353]	+ +

Same assay, conditions: Puccinia; 100 ppm spray, wheat, 24 hour protectant; control of fungal infection vs untreated plants; read-out: PUCCRT in vivo 1 Day Protectant

Structure (SMILES)	pest or weed control at 100 ppm [%]
COc1ccnc(C(=O)Nc2ccc(C(=O)c3cccc(C(F)(F)F)c3)cc2)c1O [Compound 405]	< 25
COC(=O)C(COC(=O)CC(C)OC(=O)C(C)C)NC(=O)c1nccc(OC)c1O (centres unmarked) [Compound 347]	25 to 74
COc1ccnc(C(=O)Nc2ccc(Oc3ccc(C#N)cc3)cc2)c1O [Compound 422]	< 25

System: Phytophthora infestans (PHYTIN)
Assay: microbe, parasite or virus in culture
Format: cell-based
Conditions: Phytophthora infestans, read-out: PHYTIN in vitro Growth Inhibition

Structure (SMILES)	inhibition at 25 ppm [%]
COc1ccnc(C(=O)Nc2ccc(C(=O)c3cccc(C(F)(F)F)c3)cc2)c1O [Compound 405]	< 80
COc1ccnc(C(=O)NC(COC(=O)CC(C)OC(=O)CCc2ccccc2)C(=O)OC(C)C)c1O (centres unmarked) [Compound 353]	< 80
COC(=O)C(COC(=O)CC(C)OC(=O)C(C)C)NC(=O)c1nccc(OC)c1O (centres unmarked) [Compound 347]	< 80
COc1ccnc(C(=O)Nc2ccc(Oc3ccc(C#N)cc3)cc2)c1O [Compound 422]	< 80

System: Magnaporthe grisea (Pyricularia oryzae—PYRIOR)
Assay: microbe, parasite or virus in culture
Format: cell-based
Conditions: Pyricularia oryzae, read-out: PYRIOR in vitro Growth Inhibition

Structure (SMILES)	inhibition at 25 ppm [%]
COc1ccnc(C(=O)Nc2ccc(C(=O)c3cccc(C(F)(F)F)c3)cc2)c1O [Compound 405]	< 80
COc1ccnc(C(=O)NC(COC(=O)CC(C)OC(=O)CCc2ccccc2)C(=O)OC(C)C)c1O (centres unmarked) [Compound 353]	< 80
COC(=O)C(COC(=O)CC(C)OC(=O)C(C)C)NC(=O)c1nccc(OC)c1O (centres unmarked) [Compound 347]	< 80
COc1ccnc(C(=O)Nc2ccc(Oc3ccc(C#N)cc3)cc2)c1O [Compound 422]	> 80
